Results as given in US20250288583A1, “Treatment of Mucus Hypersecretion” (priority 2024, published 2025).
Entries after “also recorded” stand apart in the source; their conditions may differ.

Tests used:
hTRPM8 channel = target: T1, hTRPM8 channel (Homo sapiens, UniProt Q7Z2W7); assay: TRPM8 receptor assay, calcium entry (Fluo-8, FLIPR) in transfected CHO cells; type: cell-based; conditions: for Potency Relative to L-menthol: ratio of TRPM8 EC50 values, menthol = 1.0
T1 construct: host or cells: CHO cells
T1 sequence (Q7Z2W7 whole entry): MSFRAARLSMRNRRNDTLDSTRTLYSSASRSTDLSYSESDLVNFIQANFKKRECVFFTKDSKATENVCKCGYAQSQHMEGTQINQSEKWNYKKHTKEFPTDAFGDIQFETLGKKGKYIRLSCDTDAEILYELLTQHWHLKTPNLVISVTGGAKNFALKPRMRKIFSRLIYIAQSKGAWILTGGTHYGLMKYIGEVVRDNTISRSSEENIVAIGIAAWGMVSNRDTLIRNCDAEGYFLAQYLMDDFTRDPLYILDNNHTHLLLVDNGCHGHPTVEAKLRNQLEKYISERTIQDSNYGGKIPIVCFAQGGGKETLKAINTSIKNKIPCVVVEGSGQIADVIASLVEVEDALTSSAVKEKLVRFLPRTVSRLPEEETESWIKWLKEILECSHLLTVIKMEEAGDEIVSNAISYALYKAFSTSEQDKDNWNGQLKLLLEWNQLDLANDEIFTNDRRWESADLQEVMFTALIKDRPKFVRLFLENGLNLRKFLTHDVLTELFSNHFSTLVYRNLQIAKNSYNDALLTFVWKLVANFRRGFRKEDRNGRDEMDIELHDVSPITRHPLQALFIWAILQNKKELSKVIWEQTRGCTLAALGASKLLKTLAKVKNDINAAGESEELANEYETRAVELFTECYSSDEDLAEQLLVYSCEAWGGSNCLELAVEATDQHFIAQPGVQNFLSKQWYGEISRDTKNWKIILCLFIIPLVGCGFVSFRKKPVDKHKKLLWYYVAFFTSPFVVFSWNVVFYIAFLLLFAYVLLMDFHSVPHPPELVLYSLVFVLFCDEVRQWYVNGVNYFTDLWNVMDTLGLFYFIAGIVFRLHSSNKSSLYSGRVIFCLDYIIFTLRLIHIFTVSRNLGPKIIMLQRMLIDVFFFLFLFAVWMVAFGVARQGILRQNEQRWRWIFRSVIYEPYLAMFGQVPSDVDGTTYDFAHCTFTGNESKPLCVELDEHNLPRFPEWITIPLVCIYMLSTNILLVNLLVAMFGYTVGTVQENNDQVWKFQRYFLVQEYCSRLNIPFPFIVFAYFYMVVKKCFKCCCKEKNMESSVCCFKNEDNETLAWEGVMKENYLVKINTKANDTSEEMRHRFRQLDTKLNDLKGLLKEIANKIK

TRPV1 = target: T2, TRPV1 (Homo sapiens, UniProt Q8NER1); assay: TRPV1 specificity assay in transfected cells; type: cell-based; conditions: FIG. 5; capsaicin positive control
T2 construct: expressed in transfected cells
T2 sequence (Q8NER1 whole entry, species assumed): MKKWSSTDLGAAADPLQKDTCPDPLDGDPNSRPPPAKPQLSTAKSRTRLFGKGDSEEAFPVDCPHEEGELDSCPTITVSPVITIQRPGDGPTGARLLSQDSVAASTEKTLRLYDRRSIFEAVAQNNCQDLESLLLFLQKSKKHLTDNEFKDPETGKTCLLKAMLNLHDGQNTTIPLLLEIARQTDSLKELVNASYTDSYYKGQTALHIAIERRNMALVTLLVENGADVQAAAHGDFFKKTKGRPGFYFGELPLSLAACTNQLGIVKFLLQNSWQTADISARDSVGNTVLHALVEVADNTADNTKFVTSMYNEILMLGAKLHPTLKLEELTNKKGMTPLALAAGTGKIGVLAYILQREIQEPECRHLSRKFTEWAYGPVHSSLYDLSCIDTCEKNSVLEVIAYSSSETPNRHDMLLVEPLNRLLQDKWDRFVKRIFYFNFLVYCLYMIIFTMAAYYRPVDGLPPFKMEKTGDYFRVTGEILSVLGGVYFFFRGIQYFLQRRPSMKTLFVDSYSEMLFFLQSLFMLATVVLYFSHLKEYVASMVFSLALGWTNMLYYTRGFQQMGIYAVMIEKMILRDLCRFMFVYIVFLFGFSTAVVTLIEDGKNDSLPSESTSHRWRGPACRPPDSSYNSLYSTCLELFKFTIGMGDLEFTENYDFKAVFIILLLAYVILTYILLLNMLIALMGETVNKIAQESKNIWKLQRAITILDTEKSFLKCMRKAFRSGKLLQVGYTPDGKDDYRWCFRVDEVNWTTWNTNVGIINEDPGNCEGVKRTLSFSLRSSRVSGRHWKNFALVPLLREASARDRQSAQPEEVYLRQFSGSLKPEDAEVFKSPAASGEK

TRPA1 = target: T3, TRPA1 (Homo sapiens, UniProt O75762); assay: TRPA1 specificity assay in transfected cells; type: cell-based; conditions: FIG. 5; mustard oil positive control
T3 construct: expressed in transfected cells
T3 sequence (O75762 whole entry, species assumed): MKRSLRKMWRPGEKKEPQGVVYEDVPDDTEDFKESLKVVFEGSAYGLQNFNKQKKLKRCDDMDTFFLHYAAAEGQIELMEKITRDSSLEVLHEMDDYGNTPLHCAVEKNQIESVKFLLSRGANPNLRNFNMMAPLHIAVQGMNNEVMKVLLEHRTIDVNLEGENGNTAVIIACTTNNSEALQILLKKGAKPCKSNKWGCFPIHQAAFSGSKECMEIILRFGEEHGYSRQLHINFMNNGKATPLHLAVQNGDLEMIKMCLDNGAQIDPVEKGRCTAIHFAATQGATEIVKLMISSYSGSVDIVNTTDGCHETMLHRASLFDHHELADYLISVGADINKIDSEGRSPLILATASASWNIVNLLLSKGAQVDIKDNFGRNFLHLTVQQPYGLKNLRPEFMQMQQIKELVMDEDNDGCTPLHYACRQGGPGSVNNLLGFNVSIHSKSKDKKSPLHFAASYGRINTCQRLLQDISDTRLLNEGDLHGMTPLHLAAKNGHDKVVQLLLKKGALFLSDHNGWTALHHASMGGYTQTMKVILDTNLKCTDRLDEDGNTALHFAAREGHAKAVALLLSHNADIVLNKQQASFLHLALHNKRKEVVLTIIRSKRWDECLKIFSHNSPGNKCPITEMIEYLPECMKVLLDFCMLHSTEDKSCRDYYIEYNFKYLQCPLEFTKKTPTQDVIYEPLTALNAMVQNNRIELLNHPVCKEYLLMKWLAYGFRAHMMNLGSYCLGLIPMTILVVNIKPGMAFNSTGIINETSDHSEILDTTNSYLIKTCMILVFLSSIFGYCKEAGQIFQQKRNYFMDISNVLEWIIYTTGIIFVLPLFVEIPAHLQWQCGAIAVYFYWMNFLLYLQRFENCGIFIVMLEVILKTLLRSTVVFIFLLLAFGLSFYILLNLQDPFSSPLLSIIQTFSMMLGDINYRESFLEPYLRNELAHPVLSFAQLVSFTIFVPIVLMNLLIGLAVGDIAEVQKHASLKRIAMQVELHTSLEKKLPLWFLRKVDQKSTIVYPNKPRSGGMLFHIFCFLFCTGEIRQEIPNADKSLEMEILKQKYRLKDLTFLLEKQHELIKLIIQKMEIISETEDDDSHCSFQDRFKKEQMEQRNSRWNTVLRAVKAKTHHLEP

philtrum skin = assay: Cooling duration bioassay on philtrum skin; type: in vivo, human
Outline: (§1)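 Human sensory test: p-menthanecarboxamide analogs applied to keratinized philtrum skin or, by wipe, to closed eyelids (non-keratinized ocular margins). Coolness rated on a 0 to 3 scale and the duration of cooling recorded.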

ocular margins = assay: Cooling duration bioassay on eyelids/ocular margins; type: in vivo, human; conditions: for Duration of effects on the ocular margins, on average: test concentration 1 mg/mL
Outline: as §1

nasal cavity = assay: Nebulizer screening of TRPM8 agonists for sensations in the nasal cavity; type: in vivo, human; conditions: NasoNeb nebulizer, 3 to 5 sec per nostril
Description: Formulations for nebulization with NasoNeb® used a standard recipe of (Table 8): 1% of the active ingredient (1 to 10 mg/mL), 2% Tween 80 (Polysorbate 80), 1 to 5% ethanol, and made up to 100% with water. The mixture is centrifuged in a FlackTek, Inc., Speedmixer for at least 10 min at 3000 rpm. The Speedmixer spins the sample in 3 dimensions. The result is a white homogeneous liquid suspension with some of the solids now dissolved. For dosing, ˜2 to 3 mL is loaded into the canister of the nebulizer. The nebulizer nozzle tip is placed in the nostril and activated by pressing a button for 3 to 5 sec using a clock timer. […] For D-Ala-OiPr a 5-sec activation will deliver 2*0.73 mL*2 mg/ml, or a total dose of 3 mg per nose. The nasal cavity is relatively tolerant to exogenous agents with irritant properties, as many rinses are used for rhinitis and sinusitis. For some p-menthanecarboxamide analogs, a 2% (20 mg/mL) solution is possible and contemplated. An ideal agent reproduces a comfortable cooling or sensations of negative heat flux in the nasal cavity. […] Heat flux refers to the rate of heat transfer per unit area. The sinonasal cavity mucosa differs from philtrum skin and ocular margins in histology, so the choice of the right molecule must be made by experiment. The TRPM8 agonists were chosen for screening using a nebulizer for delivery. The NasoNeb system is powerful and effective for the OMC (FIG. 3). The delivery time per nostril in three to five seconds. […] These parameters were estimated in the initial trials: • Onset and offset of cooling sensations in the nasal cavity. • The intensity and quality of the cooling sensations in the nasal cavity. • Presence of effects such as sneezing or cough after dosing. • Degree of nasal stuffiness on a scale of 0 to 5. • Degree of rhinorrhea and phlegm in nasal secretions. • Questions regarding comfort and sleep at night.

Stability of the solid = type: physicochemical; conditions: room temperature and physiological pH
oral cavity = conditions: Johnson et al., 2018; cited from earlier work

SMILES | EC50 (hTRPM8 channel; CHO cells transfected with hTRPM8, Fluo-8 calcium kit, FLIPR) | Potency Relative to L-menthol (hTRPM8 channel) | Response of cells transfected with TRPV1 (TRPV1) | Response of cells transfected with TRPA1 (TRPA1) | Philtrum Skin (philtrum skin; Table 6, cooling duration, keratinized skin) | Eyelids/Ocular Surface (ocular margins; Table 6, cooling duration, non-keratinized) | Duration of effects on the ocular margins, on average (ocular margins) | Sensory effects after delivery into the nasal cavity (nasal cavity) | Activity on TRPM8 transfected cells (hTRPM8 channel; FIG. 5) | Philtrum Skin (philtrum skin; Table 7, Gly esters) | Ocular Surface (ocular margins; Table 7, Gly esters) | Duration on the ocular surface (ocular margins; test concentration increased from 1 mg/mL to 1.5 mg/mL) | Stability (Stability of the solid) | Sensory qualities in the oral cavity compared with WS-5 (oral cavity)
CC(C)OC(=O)[C@@H](C)NC(=O)[C@@H]1C[C@H](C)CC[C@H]1C(C)C [D-Ala-OiPr, (R)-2-[((1R,2S,5R)-2-isopropyl-5-methyl-cyclohexanecarbonyl)amino]-propionic acid i-propyl ester] | 0.26 µM | 14.6 | inactive | inactive | 34 min | 360 min | ~5 h | Longer-acting than GlyOiPr. Excellent agent. It may have a slightly bitter taste. | – | – | – | – | – | –
CC(C)OC(=O)CNC(=O)[C@@H]1C[C@H](C)CC[C@H]1C(C)C [GlyOiPr, [((1R,2S,5R)-2-isopropyl-5-methyl-cyclohexanecarbonyl)-amino]-acetic acid isopropyl ester] | – | 7.6 | do not respond; also recorded: activates TRPM8 but not TRPV1 or TRPA1 | do not respond; also recorded: activates TRPM8 but not TRPV1 or TRPA1 | – | – | ~5 h | The sense of coolness is pure, without any harsh tones. | active | 27 min | 300 min | about 6.5 hours | stable at room temperature and physiological pH | more refreshing and less bitter than WS-5
